Results: PubChem BioAssay AID449736 (Sanford-Burnham Center for Chemical Genomics, 2010)

Biological target: Tyrosine-protein phosphatase non-receptor type 7 (Homo sapiens) (UniProt P35236)
Assay: HePTP (PTPN7) phosphatase inhibitor potency, SAR follow-up, biochemical, set 2 (AID 449736)
Details: recombinant HePTP phosphatase activity, inhibition

Sequence of Tyrosine-protein phosphatase non-receptor type 7 (Homo sapiens) (P35236 whole entry, looked up): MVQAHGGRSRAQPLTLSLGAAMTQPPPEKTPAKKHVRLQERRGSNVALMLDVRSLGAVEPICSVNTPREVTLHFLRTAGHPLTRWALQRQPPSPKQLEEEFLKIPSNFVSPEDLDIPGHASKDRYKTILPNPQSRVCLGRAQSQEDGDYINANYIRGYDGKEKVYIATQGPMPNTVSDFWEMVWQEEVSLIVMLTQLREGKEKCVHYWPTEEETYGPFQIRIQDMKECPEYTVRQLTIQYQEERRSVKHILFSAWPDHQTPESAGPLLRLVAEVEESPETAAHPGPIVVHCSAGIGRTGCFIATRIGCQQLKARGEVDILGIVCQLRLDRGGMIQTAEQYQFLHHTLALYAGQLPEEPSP

IC50: 3.61 µM
Structure (SMILES): COc1cc(/C=C2\SC(=O)N(CC(=O)Nc3cccc(C)c3)C2=O)cc(Cl)c1OCC(=O)O
